Assay results from patent publication US20160326098A1, “Pharmaceutically Active Compound for Use as Anti-inflammatory Agent” (Pax Forschung GmbH, priority 2013, published 2016).

Assays:
Assay type in all cases: in vivo
[1] = Body weight, mice with gastric injury without inflammation; details: 1.11 mmol/kg force-fed, one day after gavage, FIG. 2
Method: First experiments regarding the effect of the compound of formula (I) and a pharmaceutical composition comprising the compound of formula (I) (clear aqueous solution of compound of formula (I) at pH 4.8), respectively, on gastric injury without inflammation were conducted on mice. 48 animals were randomly allocated into three groups. Group A (n=16) served as sham-operated controls. Samples of all animals were drawn on day 1 of the clinical tests. On day 2 the animals of group B (n=16) were force-fed acetylsalicylic acid (ASS) (1.11 mmol/kg body weight). Group C (n=16) was force-fed 1.11 mmol/kg body weight of the compound according to the invention. Group A only received the respective solvent (25% ethanol in water). One day after the gavage, additional samples were drawn. Fluorescence confocal endomicroscopy was performed to examine the microvasculature and morphologic changes of the mucosa of the distal colon, and full-thickness tissue samples and venous blood samples were taken to determine the biochemical changes in the colon and plasma. The effects were determined by way of measurement of body weight, blood gas analysation and biopsy. ASS was chosen as a comparative example due to its structural similarity and its known activity as anti-inflammatory agent.

myeloperoxidase (MPO) = assay: Tissue myeloperoxidase activity, mice with gastric injury without inflammation; details: gastric and duodenal tissue, one day after treatment with 1.11 mmol/kg, vs control group A, FIGS. 5a/5b
Method: […] The homogenate was centrifuged at 4° C. for 20 minutes at 24,000 g, and the supernatant was loaded into centrifugal tubes (Amicon Centricon-100; 100,000-molecular-weight cutoff ultrafilter, Millipore Corporation, Bedford, Mass.). The activity of myeloperoxidase (MPO) was measured on the pellet of the homogenate.
The activity of MPO as a marker of tissue leukocyte infiltration was measured on the pellet of the homogenate. Briefly, the pellet was resuspended in K3PO4 buffer (0.05 M; pH 6.0) containing 0.5% […]. […] The reaction led to the hydrogen peroxide-dependent oxidation of tetramethylbenzidine, which could be detected spectrophotometrically at 450 nm (UV-1601 spetrophotometer; Shimadzu, Kyoto, Japan). Myeloperoxidase activities were measured at 37° C.; the reaction was stopped after 5 minutes by the addition of 0.2 ml of H2SO4 (2 M), and the resulting data were referred to the protein content.
First experiments regarding the effect of the compound of formula (I) and a pharmaceutical composition comprising the compound of formula (I) (clear aqueous solution of compound of formula (I) at pH 4.8), respectively, on gastric injury without inflammation were conducted on mice. […] The effects were determined by way of measurement of body weight, blood gas analysation and biopsy. […]

[2] = test system: High mobility group box protein 1 (HMGB-1); assay: Plasma high mobility group protein B1, rats with gastric injury without inflammation; details: 1.11 mmol/kg, day 3, vs control group H, FIG. 22
Method: High mobility group box protein 1 (HMGB-1) measurements in plasma:
Blood samples were drawn into chilled polypropylene tubes containing EDTA (1 mg/ml) and were centrifuged at 1200 g for 10 min at 4° C. The plasma samples were then collected and stored at −70° C. until assay. Plasma concentration of HMGB-1 was measured by a commercially available HMGB-1 ELISA kit (Shino-Test Corporation, Kanagawa, Japan).
Further experiments regarding the effect of a compound of formula (I) and a pharmaceutical composition comprising a compound of formula (I), respectively, on gastric injury without inflammation were conducted on rats. 15 animals were randomly allocated into three groups. Group H (n=5) served as sham-operated controls. Samples of all animals were drawn on day 1 of the clinical tests. On day 2 the animals of group I (n=5) were force-fed acetylsalicylic acid (ASS) (1.11 mmol/kg body weight). Group K (n=5) was force-fed 1.11 mmol/kg body weight of the compound according to the invention. […] Fluorescence confocal endomicroscopy was performed to examine the microvasculature and morphologic changes of the mucosa of the distal colon, and full-thickness tissue samples and venous blood samples were taken to determine the biochemical changes in the colon and plasma. The effects were determined by way of measurement of body weight, blood gas analysation and biopsy. […]

[3] = Body weight, rats with TNBS-induced colitis; details: two days after enema, one day after 1.11 mmol/kg, FIG. 27
Method: Colonic inflammation was induced by intracolonic administration of TNBS (2,4,6-trinitrobenzenesulfonic acid) (40 mg/kg in 0.25 ml of 25% aqueous ethanol) through an 8-cm-long soft plastic catheter under transient diethylether anesthesia. In the sham-operated groups, only the vehicle for TNBS was administered. The animals were deprived of food, but not water, for 12 h before the enemas.
The above-described clinical studies were repeated with animals having colitis which was induced as described above. […] Two days after the enema the effects of the treatment were determined by measurement of body weight, blood gas analysis and biopsy. […] Surgery was performed to allow registration of the hemodynamic parameters at 1 h intervals for 6 h (cardiac output [CO] data were measured only at the end of the experiments). […] In addition, fluorescence confocal endomicroscopy was performed to examine the microvasculature and morphologic changes of the mucosa of the distal colon, and full-thickness tissue samples and venous blood samples were taken to determine the biochemical changes in the colon and plasma.

SMILES | change in body weight [1] | myeloperoxidase (MPO) activity (myeloperoxidase (MPO)) | concentration of the high mobility group protein B1 in the plasma [2] | loss of body weight [3]
CC(=O)Oc1ccccc1C(=O)O [ASS, acetylsalicylic acid, reference compound] | severe loss of body weight | increased | increased | severe loss in body weight
CC(=O)Oc1ccccc1C(=O)NC(CO)(CO)CO [compound according to the invention] | only showed a minor loss in body weight | does not further enhance the inflammatory processes | comparable with the concentration in the plasma of the animals in the control group H | No weight loss
